# Paper PMC10304174, “Development of Zeise’s Salt Derivatives Bearing Substituted Acetylsalicylic Acid Substructures as Cytotoxic COX Inhibitors” (Pharmaceutics, 2023)
# Legend:
# MCF-7 cells = experiment: Crystal violet assay, antiproliferative effects in MCF-7 cells; assay type: cell-based; conditions: MCF-7 (COX-negative), 72 h
# Description: (§1) In order to investigate the cytotoxic effects in MCF-7 and HT-29 cells, an already published crystal violet assay was used. The cells (HT-29: 3 × 10^3 cells per well in 100 µL of medium; MCF-7: 2 × 10^3 cells per well in 100 µL of medium) were seeded in their exponential growth phase in completed DMEM into 96-well microtiter plates in quadruples. […] Cells were then fixed with a solution of 1% (v/v) glutaric dialdehyde in PBS. In order to determine the cell biomass, the chromatin of the attached cells was stained with crystal violet, and the bound dye was extracted with EtOH (70%). The absorbance was measured at 590 nm. Mean values ± SD of ≥2 independent experiments were calculated, and the activity of the complexes was expressed as the cell mass of the vehicle-treated control, which was set to 100%.
# (§2) The compounds were investigated regarding their cytotoxicity (in vitro) employing an already published crystal violet assay. It is based on the quantification of the cell biomass of living cells by staining the chromatin. In order to evaluate the possible influence of COX inhibition on cell growth, Zeise’s salt derivatives were investigated comparatively in HT-29 and MCF-7 cell lines.
# HT-29 cells = experiment: Crystal violet assay, antiproliferative effects in HT-29 cells; assay type: cell-based; conditions: HT-29 (COX-1/2-positive), 72 h
# Description: as §1, §2
# [1] = Complex stability by capillary electrophoresis (decrease of initial complex over time); assay type: physicochemical; conditions: MeOH/water (50/50, v/v), 1 mM, 37 °C, CE
# Description: The analysis was performed as previously described. A 50 mM sodium tetraborate solution (pH = 9.3, adjusted with 1 M NaOH), served as background electrolyte (BGE). Washing of novel capillaries consecutively with 1 M NaOH (45 min), water (45 min), and BGE (45 min) was performed. The hydrodynamic injection mode was utilized to introduce the samples into the capillary (50 mbar for 2 s). The capillary was kept at 25 °C, and the autosampler was thermostatted at 37 °C with an external water bath. For separation, the voltage was set to 20 kV, and the detection was carried out at the wavelength of 230 nm. Before each measurement, flushing of the capillary with 0.1 M NaOH (3 min), water (3 min), and BGE (5 min) took place. The samples were dissolved in methanol (MeOH) and further diluted in equal parts by volume with water to give a final concentration of 1 mM. Triple determinations were performed, and the half-lives (τ½) are presented as mean ± SD of ≥3 independent experiments. Samples, washing solutions, and buffers were filtered through a membrane with 0.22 µm porosity and degassed by ultrasonication before use. To simplify the reaction dynamics from a possible second-order to pseudo-first-order, one of two reactants must be present in great excess (>10 to 25-fold). If this condition is fulfilled, logarithmic plotting of the gradual decrease in the other reactant’s concentration (or increase in the concentration of a product, respectively) against the time yields a straight line, and half-lives can be calculated.
# An already-established method was used to study the stability of the X-ASA-Prop-PtCl3 and X-ASA-But-PtCl3 complexes. The degradation products were separated by capillary electrophoresis using a fused-silica capillary ([…] × 75 µm, effective length: 56 cm, capillary temperature: 25 °C) and a 50 mM tetraborate buffer (pH = 9.3) as BGE. For separation, the voltage was set to 20 kV and the compounds were detected at 230 nm. Benzoic acid was used as an internal standard. Exemplary electropherograms of each complex can be found in the Supplementary Material (Figures S1–S24).
# The complexes (1 mM) were dissolved in MeOH or MeOH/water (50/50, v/v) and stored at 37 °C. The decrease in the initial amount of complex was monitored time-dependently by CE, and the half-life (τ½) was calculated (Table 2).
# COX-2 = target: T1, COX-2 (Homo sapiens, UniProt P35354); experiment: COX Inhibitor Screening Assay (EIA) on isolated COX-2 isoenzyme; assay type: biochemical; conditions: for Inhibition of COX-2: 1 µM, incubation 10 min
# T1 construct: purchased Cayman Chemicals
# T1 sequence (P35354 18-604): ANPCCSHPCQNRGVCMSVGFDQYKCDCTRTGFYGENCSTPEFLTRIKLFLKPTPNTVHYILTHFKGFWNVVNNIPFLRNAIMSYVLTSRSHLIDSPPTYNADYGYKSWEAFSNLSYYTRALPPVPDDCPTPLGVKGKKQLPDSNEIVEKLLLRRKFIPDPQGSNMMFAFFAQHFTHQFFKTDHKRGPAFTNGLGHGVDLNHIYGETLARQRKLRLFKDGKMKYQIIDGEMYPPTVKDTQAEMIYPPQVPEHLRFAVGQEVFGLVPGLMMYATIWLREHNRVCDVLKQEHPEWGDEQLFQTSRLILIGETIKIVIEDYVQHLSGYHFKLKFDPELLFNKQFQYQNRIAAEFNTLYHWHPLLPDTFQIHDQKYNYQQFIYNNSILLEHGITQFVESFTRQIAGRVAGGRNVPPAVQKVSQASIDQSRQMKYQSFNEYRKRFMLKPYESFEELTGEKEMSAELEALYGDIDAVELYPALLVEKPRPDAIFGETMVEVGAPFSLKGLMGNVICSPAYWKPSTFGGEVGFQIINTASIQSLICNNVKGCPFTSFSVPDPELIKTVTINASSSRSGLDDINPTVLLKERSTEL
# Description: The incubation of the respective complexes with the isoenzymes was exactly 10 min. The values of COX inhibition were calculated as the mean of duplicates and shown as the mean ± SD of ≥2 independent experiments.
Structure (SMILES),IC50 (MCF-7 cells),IC50 (HT-29 cells),Half-life (τ½) [1],"COX-2 selectivity (COX-2; from inhibition at 1 µM, COX-2 over COX-1)",Inhibition of COX-2 (COX-2)
"CC(=O)Oc1cccc(F)c1C(=O)OCC[CH]1[CH2][Pt-]1([Cl])([Cl])[Cl].[K+] (centres unmarked) [6-F-ASA-But-PtCl3, Potassium trichlorido[η^2-(but-3-en-1-yl)-2-acetoxy-6-fluorobenzoate]platinate(II)]",92.6 ± 23.8 µM,99.7 ± 0.4 µM,34.6 ± 1.5 h,,
"CC(=O)Oc1c(Cl)cccc1C(=O)OCC[CH]1[CH2][Pt-]1([Cl])([Cl])[Cl].[K+] (centres unmarked) [3-Cl-ASA-But-PtCl3, Potassium trichlorido[η^2-(but-3-en-1-yl)-2-acetoxy-3-chlorobenzoate]platinate(II)]",33.5 ± 1.9 µM,43 ± 10.9 µM,47.0 ± 14.0 h,,
"CC(=O)Oc1cc(Cl)ccc1C(=O)OC[CH]1[CH2][Pt-]1([Cl])([Cl])[Cl].[K+] (centres unmarked) [4-Cl-ASA-Prop-PtCl3, Potassium trichlorido[η^2-(prop-2-en-1-yl)-2-acetoxy-4-chlorobenzoate]platinate(II)]",70.7 ± 3.6 µM,89.8 ± 23.9 µM,0.545 ± 0.03 h,1.5 fold,
"CC(=O)Oc1c(C)cccc1C(=O)OCC[CH]1[CH2][Pt-]1([Cl])([Cl])[Cl].[K+] (centres unmarked) [3-CH3-ASA-But-PtCl3, Potassium trichlorido[η^2-(but-3-en-1-yl)-2-acetoxy-3-methylbenzoate]platinate(II)]",45.6 ± 7.2 µM,18 ± 2.4 µM,45.9 ± 6.0 h,,
"CC(=O)Oc1cc(F)ccc1C(=O)OCC[CH]1[CH2][Pt-]1([Cl])([Cl])[Cl].[K+] (centres unmarked) [4-F-ASA-But-PtCl3, Potassium trichlorido[η^2-(but-3-en-1-yl)-2-acetoxy-4-fluorobenzoate]platinate(II)]",105.9 ± 0.4 µM,89.2 ± 3.5 µM,49.9 ± 4.5 h,,
"CC(=O)Oc1cccc(C)c1C(=O)OC[CH]1[CH2][Pt-]1([Cl])([Cl])[Cl].[K+] (centres unmarked) [6-CH3-ASA-Prop-PtCl3, Potassium trichlorido[η^2-(prop-2-en-1-yl)-2-acetoxy-6-methylbenzoate]platinate(II)]",76.2 ± 1.4 µM,27.4 ± 1.4 µM,0.747 ± 0.0183 h,,
"CC(=O)Oc1cc(C)ccc1C(=O)OCC[CH]1[CH2][Pt-]1([Cl])([Cl])[Cl].[K+] (centres unmarked) [4-CH3-ASA-But-PtCl3, Potassium trichlorido[η^2-(but-3-en-1-yl)-2-acetoxy-4-methylbenzoate]platinate(II)]",38.8 ± 6.5 µM,27.1 ± 1.5 µM,65.7 ± 7.2 h,,
"CC(=O)Oc1ccc(Cl)cc1C(=O)OCC[CH]1[CH2][Pt-]1([Cl])([Cl])[Cl].[K+] (centres unmarked) [5-Cl-ASA-But-PtCl3, Potassium trichlorido[η^2-(but-3-en-1-yl)-2-acetoxy-5-chlorobenzoate]platinate(II)]",28.2 ± 4.5 µM,49.1 ± 6.2 µM,62.4 ± 1.6 h,,
"CC(=O)Oc1c(C)cccc1C(=O)OC[CH]1[CH2][Pt-]1([Cl])([Cl])[Cl].[K+] (centres unmarked) [3-CH3-ASA-Prop-PtCl3, Potassium trichlorido[η^2-(prop-2-en-1-yl)-2-acetoxy-3-methylbenzoate]platinate(II)]",71.4 ± 3.1 µM,27.8 ± 3.4 µM,0.585 ± 0.0383 h,,
"N.N.[Cl][Pt][Cl] [Cisplatin, reference compound]",3.7 ± 0.3 µM,2.6 ± 0.1 µM,,,
"CC(=O)Oc1c(F)cccc1C(=O)OC[CH]1[CH2][Pt-]1([Cl])([Cl])[Cl].[K+] (centres unmarked) [3-F-ASA-Prop-PtCl3, Potassium trichlorido[η^2-(prop-2-en-1-yl)-2-acetoxy-3-fluorobenzoate]platinate(II)]",85.2 ± 21.8 µM,86.9 ± 3.9 µM,0.508 ± 0.0233 h,,20.7%
"CC(=O)Oc1ccc(F)cc1C(=O)OC[CH]1[CH2][Pt-]1([Cl])([Cl])[Cl].[K+] (centres unmarked) [5-F-ASA-Prop-PtCl3, Potassium trichlorido[η^2-(prop-2-en-1-yl)-2-acetoxy-5-fluorobenzoate]platinate(II)]",106 ± 4.1 µM,110 ± 21.7 µM,0.46 ± 0.02 h,,
"CC(=O)Oc1c(F)cccc1C(=O)OCC[CH]1[CH2][Pt-]1([Cl])([Cl])[Cl].[K+] (centres unmarked) [3-F-ASA-But-PtCl3, Potassium trichlorido[η^2-(but-3-en-1-yl)-2-acetoxy-3-fluorobenzoate]platinate(II)]",97.4 ± 17.6 µM,69.4 ± 1.5 µM,51.9 ± 2.5 h,,
"CC(=O)Oc1cccc(F)c1C(=O)OC[CH]1[CH2][Pt-]1([Cl])([Cl])[Cl].[K+] (centres unmarked) [6-F-ASA-Prop-PtCl3, Potassium trichlorido[η^2-(prop-2-en-1-yl)-2-acetoxy-6-fluorobenzoate]platinate(II)]",≥ 200 µM,114 ± 7.1 µM,0.485 ± 0.005 h,,
"CC(=O)Oc1ccc(F)cc1C(=O)OCC[CH]1[CH2][Pt-]1([Cl])([Cl])[Cl].[K+] (centres unmarked) [5-F-ASA-But-PtCl3, Potassium trichlorido[η^2-(but-3-en-1-yl)-2-acetoxy-5-fluorobenzoate]platinate(II)]",93.8 ± 10.8 µM,75.8 ± 13.2 µM,48.1 ± 4.3 h,,
"CC(=O)Oc1cc(F)ccc1C(=O)OC[CH]1[CH2][Pt-]1([Cl])([Cl])[Cl].[K+] (centres unmarked) [4-F-ASA-Prop-PtCl3, Potassium trichlorido[η^2-(prop-2-en-1-yl)-2-acetoxy-4-fluorobenzoate]platinate(II)]",150 ± 33.6 µM,107 ± 3.1 µM,0.535 ± 0.0183 h,,17.5%
"CC(=O)Oc1cccc(C)c1C(=O)OCC[CH]1[CH2][Pt-]1([Cl])([Cl])[Cl].[K+] (centres unmarked) [6-CH3-ASA-But-PtCl3, Potassium trichlorido[η^2-(but-3-en-1-yl)-2-acetoxy-6-methylbenzoate]platinate(II)]",35.3 ± 0.9 µM,20.2 ± 0.2 µM,35.0 ± 3.7 h,,
"CC(=O)Oc1cccc(Cl)c1C(=O)OCC[CH]1[CH2][Pt-]1([Cl])([Cl])[Cl].[K+] (centres unmarked) [6-Cl-ASA-But-PtCl3, Potassium trichlorido[η^2-(but-3-en-1-yl)-2-acetoxy-6-chlorobenzoate]platinate(II)]",42.3 ± 8.3 µM,57.5 ± 19.2 µM,51.8 ± 7.7 h,,
"CC(=O)Oc1cccc(Cl)c1C(=O)OC[CH]1[CH2][Pt-]1([Cl])([Cl])[Cl].[K+] (centres unmarked) [6-Cl-ASA-Prop-PtCl3, Potassium trichlorido[η^2-(prop-2-en-1-yl)-2-acetoxy-6-chlorobenzoate]platinate(II)]",85.9 ± 9.2 µM,38.4 ± 3.4 µM,0.658 ± 0.0317 h,,
